Source: ChEMBL document CHEMBL4387733, “Design, synthesis and biological evaluation of indane derived GPR40 agoPAMs” (Bioorg Med Chem Lett, 2019)
In brackets after ≈: the same amount, converted by molar mass. Activity calls are given as the source filed them. No cut-off for these calls is given here.

What was measured:
Rattus norvegicus [1] = assay: Hypoglycemic activity in Sprague-Dawley rat assessed as reduction in blood glucose AUC at 3 mg/kg, ip measured after 3 hrs by IPGTT relative to control; format: functional
[2] = Protein binding in rat plasma assessed as unbound fraction at 30 mg/kg, po; format: ADME, organism-based; settings: in vivo
[3] = Protein binding in rat plasma assessed as unbound fraction at 10 mg/kg, po; format: ADME, organism-based; settings: in vivo
[4] = Toxicity in rat assessed as change in body weight at 600 mg/kg administered for 4 days; format: organism-based; settings: in vivo, 96 h
[5] = Total drug level in Wistar Han rat plasma at 1 mg/kg, iv or 2 mg/kg, po measured at 3 hrs; format: ADME, organism-based
[6] = Toxicity in rat assessed as change in clinical pathology at 600 mg/kg administered for 4 days; format: organism-based; settings: in vivo, 96 h
[7] = molecular target: Sodium-dependent dopamine transporter (Homo sapiens) (UniProt Q01959); assay: Inhibition of human sodium dependent dopamine transporter at 10 uM relative to control
[8] = Oral bioavailability in Wistar Han rat at 2 mg/kg; format: ADME, organism-based; settings: in vivo
[9] = Dose normalized AUC in Wistar Han rat at 2 mg/kg, po; format: ADME, organism-based; settings: in vivo
[10] = Ratio of compound effect for protein binding in rat plasma assessed as unbound fraction at 30 mg/kg, po to fEC50 for positive allosteric modulation of recombinant human GPR40 expressed in HEK293 cells in presence of 100% human serum
[11] = Drug metabolism in human hepatocytes assessed as (2S,3S,4S,5R)-6-((2S,3R)-3-cyclopropyl-3-(3-((R)-5-(2-fluoro-5-methoxyphenyl)-2,3-dihydro-1H-inden-1-yloxy)phenyl)-2-methylpropanoyloxy)-3,4,5-trihydroxytetrahydro-2H-pyran-2-carboxylic acid formation at 5 uM measured after 2 hrs; format: ADME, cell-based, Hepatocyte
[12] = Drug level in rat plasma at 650 mg/kg; format: ADME, organism-based; settings: in vivo
Rattus norvegicus [13] = assay: Hypoglycemic activity in Sprague-Dawley rat assessed as reduction in blood glucose AUC at 30 mg/kg, po pretreated for 1 hr followed by glucose challenge by OGTT relative to control; format: functional; design: scale not given: the % may be the effect or the level left
[14] = Volume of distribution in Wistar Han rat at 1 mg/kg, iv or 2 mg/kg, po; format: ADME, organism-based; settings: in vivo
[15] = Drug level in Wistar Han rat assessed as unbound fraction at 1 mg/kg, iv or 2 mg/kg, po; format: ADME, organism-based; settings: in vivo
[16] = Unbound drug level in Wistar Han rat plasma at 1 mg/kg, iv or 2 mg/kg, po measured at 3 hrs; format: ADME, organism-based; settings: in vivo
[17] = Half-life in Wistar Han rat at 1 mg/kg, iv or 2 mg/kg, po; format: ADME, organism-based; settings: in vivo
[18] = Clearance in Wistar Han rat at 1 mg/kg, iv or 2 mg/kg, po; format: ADME, organism-based; settings: in vivo
[19] = Protein binding in rat plasma assessed as unbound fraction at 1 mg/kg, po; format: ADME, organism-based; settings: in vivo
[20] = Ratio of compound effect for protein binding in rat plasma assessed as unbound fraction at 10 mg/kg, po to fEC50 for positive allosteric modulation of recombinant human GPR40 expressed in HEK293 cells in presence of 100% human serum
[21] = Total drug level in rat plasma at 0.3 mg/kg, po; format: ADME, organism-based; settings: in vivo
[22] = molecular target: Histamine H1 receptor (Homo sapiens) (UniProt P35367); assay: Inhibition of human histamine H1 receptor at 10 uM relative to control
[23] = molecular target: T1, Free fatty acid receptor 1 (Homo sapiens, UniProt O14842); assay: Positive allosteric modulation of recombinant human GPR40 expressed in HEK293 cells assessed as increase in [3H]-myo-inositol phosphate accumulation measured after 60 mins in presence of 100% human serum by microbeta counting method relative to control; format: functional, cell-based
[24] = Protein binding in rat plasma assessed as unbound fraction at 3 mg/kg, po; format: ADME, organism-based; settings: in vivo
[25] = molecular target: T1, Free fatty acid receptor 1; assay: Positive allosteric modulation of recombinant human GPR40 expressed in HEK293 cells assessed as increase in [3H]-myo-inositol phosphate accumulation measured after 60 mins in presence of 100% human serum by microbeta counting method; format: functional, cell-based
[26] = molecular target: T1, Free fatty acid receptor 1; assay: Positive allosteric modulation of recombinant human GPR40 expressed in HEK293 cells assessed as increase in [3H]-myo-inositol phosphate accumulation measured after 60 mins in absence of human serum by microbeta counting method relative to control; format: functional, cell-based; design: concentration or dose not given beside the values
[27] = molecular target: Peroxisome proliferator-activated receptor gamma (Homo sapiens) (UniProt P37231); assay: Inhibition of human PPARG at 10 uM relative to control
Rattus norvegicus [28] = assay: Hypoglycemic activity in Sprague-Dawley rat assessed as reduction in blood glucose AUC at 1 mg/kg, po pretreated for 1 hr followed by glucose challenge by OGTT relative to control; format: functional; design: scale not given: the % may be the effect or the level left
[29] = Toxicity in rat at 100 mg/kg administered for 4 days; format: organism-based; settings: in vivo, 96 h
Rattus norvegicus [30] = assay: Hypoglycemic activity in Sprague-Dawley rat assessed as reduction in blood glucose AUC at 3 mg/kg, po pretreated for 1 hr followed by glucose challenge by OGTT relative to control; format: functional; design: scale not given: the % may be the effect or the level left
Mus musculus = species: Mus musculus; assay: Glucose lowering effect in mouse assessed as increase in GLP-1 level; format: functional, organism-based
[31] = molecular target: Prostacyclin receptor (Homo sapiens) (UniProt P43119); assay: Inhibition of human prostanoid IP receptor at 10 uM relative to control
[32] = molecular target: Beta-3 adrenergic receptor (Homo sapiens) (UniProt P13945); assay: Inhibition of human beta3 adrenergic receptor at 10 uM relative to control
[33] = Drug metabolism in rat hepatocytes assessed as (2S,3R)-3-cyclopropyl-3-(3-((R)-5-(2-fluoro-5-(sulfooxy)phenyl)-2,3-dihydro-1H-inden-1-yloxy)phenyl)-2-methylpropanoic acid formation at 5 uM measured after 2 hrs; format: ADME, cell-based, Hepatocyte
[34] = molecular target: T1, Free fatty acid receptor 1; assay: Positive allosteric modulation of recombinant human GPR40 expressed in HEK293 cells assessed as increase in [3H]-myo-inositol phosphate accumulation measured after 60 mins in absence of human serum by microbeta counting method; format: functional, cell-based
[35] = Cmax in Wistar Han rat at 1 mg/kg, iv or 2 mg/kg, po; format: ADME, organism-based; settings: in vivo
[36] = Protein binding in human plasma assessed as unbound fraction level; format: ADME, cell-free
[37] = molecular target: Cysteinyl leukotriene receptor 2 (Homo sapiens) (UniProt Q9NS75); assay: Displacement of [3H]LTD4 from human full-length recombinant cysteinyl leukotriene type-2 receptor expressed in HEK293 cells at 10 uM measured after 60 mins by scintillation counting method relative to control; format: cell-based
Rattus norvegicus [38] = assay: Hypoglycemic activity in Sprague-Dawley rat assessed as reduction in blood glucose AUC at 10 mg/kg, po pretreated for 1 hr followed by glucose challenge by OGTT relative to control; format: functional; design: scale not given: the % may be the effect or the level left
[39] = Protein binding in rat plasma assessed as unbound fraction at 0.3 mg/kg, po; format: ADME, organism-based; settings: in vivo
[40] = Total drug level in rat plasma at 30 mg/kg, po; format: ADME, organism-based; settings: in vivo
[41] = Total drug level in rat plasma at 3 mg/kg, po; format: ADME, organism-based; settings: in vivo
[42] = Drug level in rat plasma at 100 mg/kg; format: ADME, organism-based; settings: in vivo
[43] = molecular target: Prostaglandin E2 receptor EP3 subtype (Homo sapiens) (UniProt P43115); assay: Inhibition of human prostanoid EP3 receptor at 10 uM relative to control
[44] = molecular target: Prostaglandin E2 receptor EP1 subtype (Homo sapiens) (UniProt P34995); assay: Inhibition of human prostanoid EP1 receptor at 10 uM relative to control
[45] = Total drug level in rat plasma at 1 mg/kg, po; format: ADME, organism-based; settings: in vivo
[46] = Total drug level in rat plasma at 10 mg/kg, po; format: ADME, organism-based; settings: in vivo
[47] = Solubility of the compound in FASSIF; format: physicochemical
[48] = molecular target: Sodium-dependent noradrenaline transporter (Homo sapiens) (UniProt P23975); assay: Inhibition of human sodium dependent noradrenaline transporter at 10 uM relative to control
Rattus norvegicus [49] = assay: Hypoglycemic activity in Sprague-Dawley rat assessed as reduction in blood glucose AUC at 0.3 mg/kg, po pretreated for 1 hr followed by glucose challenge by OGTT relative to control; format: functional; design: scale not given: the % may be the effect or the level left
[50] = molecular target: Acetylcholinesterase (Homo sapiens) (UniProt P22303); assay: Inhibition of human recombinant full length acetylcholine esterase expressed in HEK293 cells at 10 uM using acetylcholine as substrate preincubated for 15 mins followed by substrate addition measured after 20 mins by spectrophotometric analysis
[51] = Drug level in rat hepatocytes treated with (2S,3R)-3-cyclopropyl-3-(3-((R)-5-(2-fluoro-5-methoxyphenyl)-2,3-dihydro-1H-inden-1-yloxy)phenyl)-2-methylpropanoic acid at 5 uM measured after 2 hrs; format: ADME, cell-based, Hepatocyte
[52] = Drug level in human hepatocytes treated with (2S,3R)-3-cyclopropyl-3-(3-((R)-5-(2-fluoro-5-methoxyphenyl)-2,3-dihydro-1H-inden-1-yloxy)phenyl)-2-methylpropanoic acid at 5 uM measured after 2 hrs; format: ADME, cell-based, Hepatocyte
[53] = Stability of the compound in pH 7.4 potassium phosphate buffer at 10 uM measured after 5 hrs; format: physicochemical; settings: pH 7.4, 5 h

T1 sequence (O14842 whole entry): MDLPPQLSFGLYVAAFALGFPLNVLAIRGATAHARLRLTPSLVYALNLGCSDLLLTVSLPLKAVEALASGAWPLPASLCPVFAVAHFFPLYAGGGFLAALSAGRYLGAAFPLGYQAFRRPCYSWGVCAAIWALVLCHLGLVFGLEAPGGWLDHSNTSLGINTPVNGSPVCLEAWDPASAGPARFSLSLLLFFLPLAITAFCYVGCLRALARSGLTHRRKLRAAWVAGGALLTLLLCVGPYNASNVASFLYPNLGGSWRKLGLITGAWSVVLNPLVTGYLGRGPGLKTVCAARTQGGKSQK
Chain of Histamine H1 receptor (Homo sapiens) (P35367 whole entry): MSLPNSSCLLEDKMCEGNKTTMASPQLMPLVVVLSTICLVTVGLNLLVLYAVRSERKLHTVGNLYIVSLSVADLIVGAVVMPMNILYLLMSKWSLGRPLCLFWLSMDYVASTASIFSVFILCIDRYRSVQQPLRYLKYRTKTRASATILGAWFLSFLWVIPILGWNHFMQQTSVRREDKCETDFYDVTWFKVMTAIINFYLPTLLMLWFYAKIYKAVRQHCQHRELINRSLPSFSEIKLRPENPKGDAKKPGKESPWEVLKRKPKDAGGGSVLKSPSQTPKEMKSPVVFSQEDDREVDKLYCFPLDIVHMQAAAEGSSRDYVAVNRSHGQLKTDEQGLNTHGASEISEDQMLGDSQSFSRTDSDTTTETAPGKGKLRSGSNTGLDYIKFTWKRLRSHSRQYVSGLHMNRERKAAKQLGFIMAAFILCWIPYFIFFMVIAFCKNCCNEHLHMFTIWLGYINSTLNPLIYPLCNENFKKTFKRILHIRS
Chain of Peroxisome proliferator-activated receptor gamma (Homo sapiens) (P37231 whole entry): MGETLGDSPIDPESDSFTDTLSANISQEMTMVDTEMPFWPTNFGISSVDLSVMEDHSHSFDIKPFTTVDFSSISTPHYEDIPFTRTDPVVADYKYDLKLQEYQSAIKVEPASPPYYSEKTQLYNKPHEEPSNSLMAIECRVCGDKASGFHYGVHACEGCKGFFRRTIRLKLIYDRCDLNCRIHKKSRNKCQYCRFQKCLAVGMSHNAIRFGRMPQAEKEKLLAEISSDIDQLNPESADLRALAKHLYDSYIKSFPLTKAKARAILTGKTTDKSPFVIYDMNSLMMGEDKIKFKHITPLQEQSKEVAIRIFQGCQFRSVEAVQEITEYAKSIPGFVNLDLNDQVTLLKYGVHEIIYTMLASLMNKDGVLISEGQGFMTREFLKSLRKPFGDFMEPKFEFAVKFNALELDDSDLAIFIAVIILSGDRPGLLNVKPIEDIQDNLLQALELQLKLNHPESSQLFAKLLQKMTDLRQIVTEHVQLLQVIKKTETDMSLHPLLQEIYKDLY
Chain of Acetylcholinesterase (Homo sapiens) (P22303 whole entry): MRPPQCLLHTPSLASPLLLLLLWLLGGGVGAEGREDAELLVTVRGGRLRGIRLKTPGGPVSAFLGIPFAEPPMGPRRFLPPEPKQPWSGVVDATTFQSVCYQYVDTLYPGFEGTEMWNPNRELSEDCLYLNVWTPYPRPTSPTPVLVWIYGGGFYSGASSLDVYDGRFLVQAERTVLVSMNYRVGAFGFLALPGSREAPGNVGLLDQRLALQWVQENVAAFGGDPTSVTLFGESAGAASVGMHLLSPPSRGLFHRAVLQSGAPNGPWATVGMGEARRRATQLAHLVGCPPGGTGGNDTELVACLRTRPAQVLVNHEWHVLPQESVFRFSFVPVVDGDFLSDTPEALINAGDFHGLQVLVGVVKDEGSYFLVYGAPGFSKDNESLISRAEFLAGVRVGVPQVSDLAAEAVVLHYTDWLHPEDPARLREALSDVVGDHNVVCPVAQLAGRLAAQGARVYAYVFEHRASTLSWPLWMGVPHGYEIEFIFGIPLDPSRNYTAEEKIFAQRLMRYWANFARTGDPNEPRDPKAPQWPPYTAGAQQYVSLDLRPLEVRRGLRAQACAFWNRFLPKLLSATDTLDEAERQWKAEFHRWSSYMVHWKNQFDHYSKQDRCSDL
Chain of Prostaglandin E2 receptor EP1 subtype (Homo sapiens) (P34995 whole entry): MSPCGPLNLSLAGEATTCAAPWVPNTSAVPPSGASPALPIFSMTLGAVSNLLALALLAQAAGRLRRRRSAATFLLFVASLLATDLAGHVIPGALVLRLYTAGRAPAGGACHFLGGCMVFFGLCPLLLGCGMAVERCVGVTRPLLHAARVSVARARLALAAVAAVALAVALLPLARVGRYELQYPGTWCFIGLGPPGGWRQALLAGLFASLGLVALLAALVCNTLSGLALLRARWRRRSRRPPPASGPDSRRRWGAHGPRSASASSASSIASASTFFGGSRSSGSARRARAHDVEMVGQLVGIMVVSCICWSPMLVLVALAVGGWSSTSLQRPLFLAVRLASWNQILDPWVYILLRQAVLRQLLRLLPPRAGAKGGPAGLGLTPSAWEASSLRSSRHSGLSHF
Chain of Beta-3 adrenergic receptor (Homo sapiens) (P13945 whole entry, looked up): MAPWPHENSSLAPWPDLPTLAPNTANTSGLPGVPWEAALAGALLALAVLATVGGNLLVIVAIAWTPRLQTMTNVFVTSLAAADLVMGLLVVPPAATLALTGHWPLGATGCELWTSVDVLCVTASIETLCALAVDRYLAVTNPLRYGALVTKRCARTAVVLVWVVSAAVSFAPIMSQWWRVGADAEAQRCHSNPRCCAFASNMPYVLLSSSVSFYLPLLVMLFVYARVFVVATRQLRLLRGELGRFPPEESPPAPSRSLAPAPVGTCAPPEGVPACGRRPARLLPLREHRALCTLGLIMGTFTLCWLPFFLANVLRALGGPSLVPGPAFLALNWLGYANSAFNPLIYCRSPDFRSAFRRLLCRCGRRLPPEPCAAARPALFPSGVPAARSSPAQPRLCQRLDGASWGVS
Chain of Prostacyclin receptor (Homo sapiens) (P43119 whole entry): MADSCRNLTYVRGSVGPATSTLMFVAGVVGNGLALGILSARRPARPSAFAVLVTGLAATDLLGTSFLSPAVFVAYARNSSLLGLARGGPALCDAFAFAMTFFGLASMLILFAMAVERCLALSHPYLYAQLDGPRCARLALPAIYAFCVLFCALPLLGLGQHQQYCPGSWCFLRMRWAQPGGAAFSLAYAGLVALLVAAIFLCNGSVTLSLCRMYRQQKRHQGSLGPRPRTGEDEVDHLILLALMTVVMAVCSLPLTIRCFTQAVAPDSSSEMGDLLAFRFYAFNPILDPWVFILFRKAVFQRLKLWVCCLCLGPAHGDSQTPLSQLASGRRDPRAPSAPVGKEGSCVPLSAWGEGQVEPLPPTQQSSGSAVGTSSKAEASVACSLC
Chain of Sodium-dependent dopamine transporter (Homo sapiens) (Q01959 whole entry): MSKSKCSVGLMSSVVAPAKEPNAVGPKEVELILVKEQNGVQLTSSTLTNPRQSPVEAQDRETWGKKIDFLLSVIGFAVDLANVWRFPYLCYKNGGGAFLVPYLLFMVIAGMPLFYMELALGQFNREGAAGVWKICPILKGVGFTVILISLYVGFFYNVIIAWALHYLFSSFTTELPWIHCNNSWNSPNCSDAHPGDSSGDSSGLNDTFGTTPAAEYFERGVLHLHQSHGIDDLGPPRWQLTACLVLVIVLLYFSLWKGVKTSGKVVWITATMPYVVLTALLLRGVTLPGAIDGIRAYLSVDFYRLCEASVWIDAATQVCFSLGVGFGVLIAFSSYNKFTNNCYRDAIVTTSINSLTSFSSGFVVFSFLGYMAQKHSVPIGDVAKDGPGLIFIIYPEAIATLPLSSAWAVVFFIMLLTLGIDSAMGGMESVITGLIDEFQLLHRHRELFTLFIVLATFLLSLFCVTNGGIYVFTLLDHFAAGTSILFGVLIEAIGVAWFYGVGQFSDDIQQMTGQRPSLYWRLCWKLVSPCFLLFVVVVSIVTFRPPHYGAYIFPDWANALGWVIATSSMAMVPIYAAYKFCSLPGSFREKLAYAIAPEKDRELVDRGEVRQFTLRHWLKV
Chain of Prostaglandin E2 receptor EP3 subtype (Homo sapiens) (P43115 whole entry): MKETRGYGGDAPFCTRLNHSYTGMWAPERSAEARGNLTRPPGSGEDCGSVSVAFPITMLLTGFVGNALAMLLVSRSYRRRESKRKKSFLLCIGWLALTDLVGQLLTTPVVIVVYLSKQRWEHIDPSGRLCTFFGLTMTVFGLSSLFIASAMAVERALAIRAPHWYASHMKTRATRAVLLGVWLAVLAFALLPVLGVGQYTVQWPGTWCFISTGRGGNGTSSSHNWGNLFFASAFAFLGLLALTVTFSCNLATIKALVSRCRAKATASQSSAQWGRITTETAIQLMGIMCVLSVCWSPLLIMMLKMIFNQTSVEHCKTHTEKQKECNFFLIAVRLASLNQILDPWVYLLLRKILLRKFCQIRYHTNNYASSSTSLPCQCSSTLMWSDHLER
Chain of Sodium-dependent noradrenaline transporter (Homo sapiens) (P23975 whole entry): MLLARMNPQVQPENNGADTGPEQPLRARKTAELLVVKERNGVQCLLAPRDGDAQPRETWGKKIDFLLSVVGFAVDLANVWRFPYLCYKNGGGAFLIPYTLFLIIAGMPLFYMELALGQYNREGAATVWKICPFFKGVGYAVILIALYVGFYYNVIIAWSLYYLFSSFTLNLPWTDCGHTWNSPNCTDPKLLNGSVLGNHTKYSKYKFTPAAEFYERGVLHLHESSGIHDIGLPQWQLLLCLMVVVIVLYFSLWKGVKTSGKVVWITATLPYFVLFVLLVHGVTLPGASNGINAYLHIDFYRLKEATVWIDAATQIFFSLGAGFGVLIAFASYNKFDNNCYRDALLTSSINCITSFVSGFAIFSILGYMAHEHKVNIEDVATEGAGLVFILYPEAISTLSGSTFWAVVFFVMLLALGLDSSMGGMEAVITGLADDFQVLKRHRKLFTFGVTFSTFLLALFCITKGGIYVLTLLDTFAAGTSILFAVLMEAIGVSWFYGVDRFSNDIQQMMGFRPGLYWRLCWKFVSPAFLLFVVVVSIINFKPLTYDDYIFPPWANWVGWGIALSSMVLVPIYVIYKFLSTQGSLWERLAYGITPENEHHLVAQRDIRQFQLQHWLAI

COc1ccc(F)c(-c2ccc3c(c2)CC[C@H]3Oc2cccc([C@H](C3CC3)[C@H](C)C(=O)O)c2)c1
inhibition in vivo at 3 mg/kg (Rattus norvegicus [1]): 71% | Cp(f) [2]: 1.73 nM | Cp(f) [3]: 0.76 nM | Activity [4]: Toxic | concentration at 3 h [5]: 1600 nM | Activity [6]: Toxic | inhibition [7]: 89% | bioavailability [8]: 81% | AUC/dose [9]: 21.5 µM·h | Ratio [10]: 42 | Drug metabolism [11]: Metabolite_Detected | concentration [12]: 1900 nM | Activity (Rattus norvegicus [13]): 114% | Vd [14]: 0.33 L/kg | Fu [15]: 0.01% | Cp(f) [16]: 0.16 nM | half-life [17]: 1.8 h | clearance [18]: 0.168 L/h/kg | Cp(f) [19]: 0.069 nM | Ratio [20]: 19 | concentration [21]: 207 nM | inhibition [22]: 70% | Activity [23]: 205% | Cp(f) [24]: 0.45 nM | EC50 [25]: 0.388 µM | fEC50 [25]: 0.04 nM | Activity [26]: 323% | inhibition [27]: 87% | Activity (Rattus norvegicus [28]): 40% | Activity [29]: Non-Toxic | Activity (Rattus norvegicus [30]): 82% | Activity (Mus musculus): Active | inhibition [31]: 68% | inhibition [32]: 55% | Drug metabolism [33]: Metabolite_Detected | EC50 [34]: 0.0045 µM | Cmax [35]: 2900 nM | Fu [36]: 0.01% | inhibition [37]: 71% | Activity (Rattus norvegicus [38]): 105% | Cp(f) [39]: 0.02 nM | concentration [40]: 17300 nM | concentration [41]: 4470 nM | concentration [42]: 1240 nM | inhibition [43]: 80% | inhibition [44]: 81% | concentration [45]: 689 nM | concentration [46]: 7610 nM | solubility [47]: 153 µM (≈ 70.5 µg/mL) | inhibition [48]: 69% | Activity (Rattus norvegicus [49]): 19% | inhibition [50]: 52%

C[C@H](C(=O)O)[C@H](c1cccc(O[C@@H]2CCc3cc(-c4cc(OS(=O)(=O)O)ccc4F)ccc32)c1)C1CC1
Drug metabolism [51]: Metabolite_Detected

C[C@H](C(=O)OC1O[C@H](C(=O)O)[C@@H](O)[C@H](O)[C@H]1O)[C@H](c1cccc(O[C@@H]2CCc3cc(-c4cc(O)ccc4F)ccc32)c1)C1CC1 (stereo not given in full)
Drug metabolism [52]: Metabolite_Detected | Stability [53]: Stable
